Data: article PMC10707468, “Pharmacokinetics of Novel Dopamine Transporter Inhibitor CE-123 and Modafinil with a Focus on Central Nervous System Distribution” (International Journal of Molecular Sciences, 2023)

Assays:
CYP1A = target: T1, CYP1A (Homo sapiens, UniProt P05177); assay: CYP P450 inhibition in HLMs (Eurofins Panlabs); type: in vitro ADME; conditions: microsomes, S-CE-123 10 µM, range given for CYP2C9, CYP1A and CYP2D6 together, read-out: inhibition of control values
T1 construct: from tissue; host or cells: human liver microsomes (HLMs)
T1 sequence (P05177 2-516 limits assumed): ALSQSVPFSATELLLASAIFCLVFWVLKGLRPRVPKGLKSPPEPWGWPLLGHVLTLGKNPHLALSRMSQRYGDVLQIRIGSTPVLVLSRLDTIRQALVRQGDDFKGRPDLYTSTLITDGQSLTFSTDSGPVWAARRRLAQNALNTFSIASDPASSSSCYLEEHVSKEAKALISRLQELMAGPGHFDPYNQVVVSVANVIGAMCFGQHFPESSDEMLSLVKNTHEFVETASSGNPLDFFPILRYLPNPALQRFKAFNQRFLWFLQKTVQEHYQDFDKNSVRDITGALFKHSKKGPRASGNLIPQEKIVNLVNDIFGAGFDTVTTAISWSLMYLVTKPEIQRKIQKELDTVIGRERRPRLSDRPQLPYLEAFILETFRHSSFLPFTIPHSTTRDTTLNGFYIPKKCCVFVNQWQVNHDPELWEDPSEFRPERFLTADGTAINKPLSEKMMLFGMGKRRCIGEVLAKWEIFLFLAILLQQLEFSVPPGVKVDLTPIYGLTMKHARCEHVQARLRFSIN
Protocol: (§1) In vitro metabolism assays for the cytochrome (CYP) P450 inhibition of S-CE-123 was outsourced to Eurofins Panlabs (St. Charles, MO, USA, study number 100050638). Briefly, 0.1 mg/mL of the HLMs was incubated for 10 min at 37 °C with substrate (10 µM phenacetin for CYP1A, 100 µM bupropion for CYP2B6, 10 µM amodiaquine for CYP2C8, 10 µM diclofenac for CYP2C9, 0.5 µM omeprazole for CYP2C19, 5 µM dextromethorphan for CYP2D6, 5 µM midazolam for CYP3A, and 50 µM testosterone for CYP3A4) in the presence/absence of S-CE-123 (10 µM). The peak areas corresponding to the metabolite of each substrate were recorded. The percent of control activity was then calculated by comparing the peak area obtained in the presence of the test compound to that obtained in the absence of the test compound. Subsequently, the percent inhibition was calculated by subtracting the percent control activity from 100 for each compound. The IC50 values (concentration causing a half-maximal inhibition of control values) were determined using non-linear regression analysis of the concentration–response curve using Hill equation curve fitting.

CYP2B6 = target: T2, CYP2B6 (Homo sapiens, UniProt P20813); assay: CYP P450 inhibition in HLMs (Eurofins Panlabs); type: in vitro ADME; conditions: S-CE-123 10 µM
T2 construct: from tissue; host or cells: human liver microsomes (HLMs)
T2 sequence (P20813 1-491): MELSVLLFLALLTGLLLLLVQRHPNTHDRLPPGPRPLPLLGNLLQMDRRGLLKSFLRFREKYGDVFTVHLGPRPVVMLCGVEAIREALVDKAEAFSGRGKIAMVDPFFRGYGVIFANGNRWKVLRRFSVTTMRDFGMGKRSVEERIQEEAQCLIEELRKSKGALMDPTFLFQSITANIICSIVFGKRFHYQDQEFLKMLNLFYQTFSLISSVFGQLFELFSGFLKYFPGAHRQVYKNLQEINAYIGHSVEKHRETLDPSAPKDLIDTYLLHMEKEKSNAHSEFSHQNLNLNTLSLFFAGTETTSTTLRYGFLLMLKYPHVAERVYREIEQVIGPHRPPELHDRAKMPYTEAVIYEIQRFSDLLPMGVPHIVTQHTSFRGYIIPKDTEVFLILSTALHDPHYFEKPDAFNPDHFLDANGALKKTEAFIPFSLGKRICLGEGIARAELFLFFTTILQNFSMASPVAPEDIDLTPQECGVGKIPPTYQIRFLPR
Protocol: as §1

CYP2D6 = target: T3, CYP2D6 (Homo sapiens, UniProt P10635); assay: CYP P450 inhibition in HLMs (Eurofins Panlabs); type: in vitro ADME; conditions: microsomes, S-CE-123 10 µM, range given for CYP2C9, CYP1A and CYP2D6 together, read-out: inhibition of control values
T3 construct: from tissue; host or cells: human liver microsomes (HLMs)
Protocol: as §1

CYP3A = assay: CYP P450 inhibition in HLMs (Eurofins Panlabs); type: in vitro ADME, human; conditions: S-CE-123 10 µM
Protocol: as §1

human DAT = conditions: cell lines expressing human DAT; read-out: Inhibitory constant, Ki; cited from earlier work
[1] = tested on: human isoforms of the DAT; set-up: method as in PMID 29230168; conditions: HEK293 cells; cited from earlier work
SERT = tested on: SERT; set-up: method as in PMID 29410048; conditions: cited from earlier work
NET = tested on: NET; set-up: method as in PMID 29410048; conditions: cited from earlier work
CYP2C19 = CYP2C19 (Homo sapiens, UniProt P33261); assay: CYP P450 inhibition in HLMs (Eurofins Panlabs); type: in vitro ADME; set-up: from tissue; host or cells: human liver microsomes (HLMs); conditions: S-CE-123 10 µM
Protocol: as §1

CYP2C9 = CYP2C9 (Homo sapiens, UniProt P11712); assay: CYP P450 inhibition in HLMs (Eurofins Panlabs); type: in vitro ADME; set-up: from tissue; host or cells: human liver microsomes (HLMs); conditions: microsomes, S-CE-123 10 µM, range given for CYP2C9, CYP1A and CYP2D6 together, read-out: inhibition of control values
Protocol: as §1

Sequence of CYP2C9 (P11712 whole entry): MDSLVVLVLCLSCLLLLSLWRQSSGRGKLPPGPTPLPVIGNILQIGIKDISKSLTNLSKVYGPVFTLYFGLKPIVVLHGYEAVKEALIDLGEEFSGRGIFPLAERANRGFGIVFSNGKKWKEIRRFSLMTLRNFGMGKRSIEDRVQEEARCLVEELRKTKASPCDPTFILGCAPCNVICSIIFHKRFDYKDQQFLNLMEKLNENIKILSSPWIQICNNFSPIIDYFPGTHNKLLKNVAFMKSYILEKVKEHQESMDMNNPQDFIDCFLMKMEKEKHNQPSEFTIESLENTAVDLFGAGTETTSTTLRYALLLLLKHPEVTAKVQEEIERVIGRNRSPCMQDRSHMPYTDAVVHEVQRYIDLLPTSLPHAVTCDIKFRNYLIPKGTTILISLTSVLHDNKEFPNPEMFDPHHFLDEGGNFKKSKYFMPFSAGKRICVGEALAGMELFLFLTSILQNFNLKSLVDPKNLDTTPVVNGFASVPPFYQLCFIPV
T3 sequence (P10635 whole entry): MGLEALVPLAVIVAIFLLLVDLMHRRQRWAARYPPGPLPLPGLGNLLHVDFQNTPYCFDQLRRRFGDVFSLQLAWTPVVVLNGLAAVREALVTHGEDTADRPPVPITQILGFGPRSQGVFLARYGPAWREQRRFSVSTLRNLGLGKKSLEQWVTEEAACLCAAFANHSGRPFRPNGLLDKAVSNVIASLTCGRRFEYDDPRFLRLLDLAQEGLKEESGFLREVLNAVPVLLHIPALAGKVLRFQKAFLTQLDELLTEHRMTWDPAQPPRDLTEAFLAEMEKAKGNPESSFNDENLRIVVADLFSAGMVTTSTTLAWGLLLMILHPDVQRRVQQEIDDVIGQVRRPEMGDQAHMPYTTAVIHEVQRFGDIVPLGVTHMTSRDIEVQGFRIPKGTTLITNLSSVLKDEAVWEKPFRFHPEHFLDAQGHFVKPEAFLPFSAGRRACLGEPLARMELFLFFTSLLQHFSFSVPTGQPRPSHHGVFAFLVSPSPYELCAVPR
Sequence of CYP2C19 (P33261 whole entry): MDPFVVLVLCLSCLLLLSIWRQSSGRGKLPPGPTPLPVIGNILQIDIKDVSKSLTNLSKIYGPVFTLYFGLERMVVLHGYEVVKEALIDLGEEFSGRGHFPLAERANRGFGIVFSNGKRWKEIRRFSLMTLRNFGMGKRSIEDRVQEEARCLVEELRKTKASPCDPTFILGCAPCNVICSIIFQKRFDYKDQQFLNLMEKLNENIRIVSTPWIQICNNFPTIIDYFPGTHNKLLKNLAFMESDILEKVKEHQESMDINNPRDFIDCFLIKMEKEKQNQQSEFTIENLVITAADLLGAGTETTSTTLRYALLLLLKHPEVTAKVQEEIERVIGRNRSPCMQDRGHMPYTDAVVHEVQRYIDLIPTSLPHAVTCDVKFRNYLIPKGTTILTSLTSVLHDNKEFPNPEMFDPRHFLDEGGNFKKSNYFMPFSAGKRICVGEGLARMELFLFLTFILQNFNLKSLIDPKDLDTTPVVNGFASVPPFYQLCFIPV

**Q.** For `[O-][S@@+](Cc1cncs1)C(c1ccccc1)c1ccccc1` [S-CE-123], which inhibition at 10 min, 10 µM (CYP1A) is on record?
**A.** 47 to 68%

**Q.** What about the “inhibition of control values” (CYP2B6) of the same compound?
**A.** Low inhibition

**Q.** And the inhibition at 10 min, 10 µM (CYP2D6)?
**A.** 47 to 68%

**Q.** What about the “inhibition of control values” (CYP3A) of the same compound?
**A.** Low inhibition

**Q.** And the Ki (human DAT)?
**A.** 610 nM

**Q.** What about the “fold higher in vitro activity on the DAT than its R-enantiomer” value [1] of the same compound?
**A.** ~8 fold

**Q.** What about the “activity on SERT” value (SERT) of the same compound?
**A.** negligible activity

**Q.** And the “activity on NET” value (NET)?
**A.** negligible activity

**Q.** What about the “inhibition of control values” (CYP2C19) of the same compound?
**A.** Low inhibition

**Q.** And the inhibition at 10 min, 10 µM (CYP2C9)?
**A.** 47 to 68%
